Assay results reported in ChEMBL document CHEMBL2346639, “A new dehydroabietic acid-based arylamine fluorescent probe: Synthesis, structure analysis and in vitro biodiagnose function” (Bioorg Med Chem Lett, 2013).

Tests used:
[1] = Cellular uptake in human A549 cells cytoplasm after 4 hrs by fluorescence microscopic analysis; type: ADME, cell-based; settings: a549, 4 h
[2] = Cellular uptake in human SGC7901 cells cytoplasm after 4 hrs by fluorescence microscopic analysis; type: ADME, cell-based; settings: sgc-7901, 4 h
[3] = Cellular uptake in human HeLa cells cytoplasm after 4 hrs by fluorescence microscopic analysis; type: ADME, cell-based
[4] = Cellular uptake in human SMMC7721 cells cytoplasm after 4 hrs by fluorescence microscopic analysis; type: ADME, cell-based; settings: smmc-7721, 4 h
SGC-7901 = test: Cellular uptake in human SGC7901 cells after 4 hrs by fluorescence microscopic analysis; type: ADME, cell-based; settings: sgc-7901, 4 h
A549 [5] = test: Cellular uptake in human A549 cells after 4 hrs by fluorescence microscopic analysis; type: ADME, cell-based; settings: a549, 4 h
SMMC-7721 = test: Cellular uptake in human SMMC7721 cells after 4 hrs by fluorescence microscopic analysis; type: ADME, cell-based; settings: smmc-7721, 4 h
[6] = Cytotoxicity against human A549 cells assessed as cell survival at 1 uM after 24 hrs by MTT assay relative to control; type: cell-based; settings: read-out: Survival
HeLa = test: Cellular uptake in human HeLa cells after 4 hrs by fluorescence microscopic analysis; type: ADME, cell-based
[7] = Cytotoxicity against human SGC7901 cells assessed as cell survival at 1 uM after 24 hrs by MTT assay relative to control; type: cell-based; settings: SGC-7901 cells, read-out: Survival
[8] = Cytotoxicity against human HeLa cells assessed as cell survival at 1 uM after 24 hrs by MTT assay relative to control; type: cell-based; settings: read-out: Survival
[9] = Cytotoxicity against human SMMC7721 cells assessed as cell survival at 1 uM after 24 hrs by MTT assay relative to control; type: cell-based; settings: SMMC-7721 cells, read-out: Survival
[10] = Photostability of the compound in dichloromethane at 1 x 10^-6 M measured after UV-irradiation by fluorescence spectra analysis; type: physicochemical; settings: 1 µM
A549 [11] = test: Cytotoxicity against human A549 cells assessed as effect on cell survival at 5 to 25 uM after 24 hrs by MTT assay; type: cell-based; settings: a549, 24 h
[12] = Photostability of the compound in methanol at 1 x 10^-6 M measured after UV-irradiation by fluorescence spectra analysis; type: physicochemical; settings: 1 µM
[13] = Photostability of the compound in DMSO at 1 x 10^-6 M measured after UV-irradiation by fluorescence spectra analysis; type: physicochemical; settings: 1 µM
[14] = Photostability of the compound in water at 1 x 10^-6 M measured after UV-irradiation by fluorescence spectra analysis; type: physicochemical; settings: buffer, 1 µM
[15] = Photostability of the compound in water at 10 uM measured 30 mins after UV-irradiation by fluorescence spectra analysis; type: physicochemical; settings: buffer, 0.5 h
[16] = Solubility of the compound in water; type: physicochemical

## COC(=O)[C@]1(C)CCC[C@]2(C)c3ccc(Nc4cccc5ccccc45)cc3CC[C@@H]12
[1]
  Drug uptake: Active
[2]
  Drug uptake: Active
[3]
  Drug uptake: Active
[4]
  Drug uptake: Active
SGC-7901
  Drug uptake: Active
A549 [5]
  Drug uptake: Active
SMMC-7721
  Drug uptake: Active
[6]
  viability at 24 h, 1 µM: 93.1%
HeLa
  Drug uptake: Active
[7]
  viability at 24 h, 1 µM: 94.5%
[8]
  viability at 24 h, 1 µM: 97.3%
[9]
  viability at 24 h, 1 µM: 96%
[10]
  Stability: Unstable
A549 [11]
  Activity: Non-toxic
[12]
  Stability: Unstable
[13]
  Stability: Unstable
[14]
  Stability: Stable
[15]
  Stability: Stable
[16]
  solubility: > 15 µM
